Measurements taken from US20230212180A1, “SUBSTITUTED PYRAZINE COMPOUND, PHARMACEUTICAL COMPOSITION COMPRISING SAME, AND USE THEREOF” (Sichuan Kelun-Biotech Biopharmaceutical Co., Ltd., priority 2020, published 2023).

Assays:
[1] = tested on: KYSE-520 cell (human esophageal squamous cell carcinoma cell); assay: Inhibition of the proliferation activity of KYSE-520 cell (CellTiter-Glo); type: cell-based; conditions: 120 h, KYSE-520 cell proliferation, 5 days
Procedure: Test Example 2: Experiment on the Inhibition of the Proliferation Activity of KYSE-520 Cell (Human Esophageal Squamous Cell Carcinoma Cell)
cell: KYSE-520 (JCRB Cell Bank);
(§1) kit: CellTiter-Glo® Luminescent Cell Viability Assay Kit (Promega).
(§2) inoculation amount of cell: 1500 cells/well;
incubation conditions for compound: 37° C., 5% CO2;
(§3) incubation duration: 5 days;
(§4) detecting temperature: room temperature;
(§5) chemiluminescence detection using the BMG PHERAstar FS reader.
(§6) Cells were cultured in a medium containing 10% fetal bovine serum under the culture conditions of 37° C. and 5% CO2. An appropriate amount of cells were plated into a 96-well plate and cultured overnight in an incubator to allow the cells to adhere to the wall. The following day, the medium was removed and a complete medium containing a pre-diluted compound was added and incubated at 37° C. for 5 days. On the fifth day, the detection reagent CellTiter-Glo® was added into each well. Chemiluminescence was adopted to detect the relative luminescence units (RLUs) of the wells.
(§7) The result of a well containing cell-free medium, treated with CellTiter-Glo®, was obtained as the blank value. Cell viability (%)=(sample RLU−blank RLU)/(vehicle RLU−blank RLU)×100%, and maximum inhibition rate (%)=100%−cell viabilitymax. conc. (%). The half maximal inhibitory concentration (IC50) of the compound was calculated by fitting the curve according to the four-parameter logistic model.

[2] = target: T1, recombinant full-length human PTPN11 (SHP2) (Homo sapiens, UniProt Q06124); assay: Inhibition of in vitro enzyme activity of SHP2 (DiFMUP fluorescence endpoint assay); type: biochemical; conditions: SHP2 0.5 nM, DiFMUP 200 μM, IRS-1 0.5 μM; 60 min incubation
T1 construct: recombinant full-length human PTPN11 (SHP2), active (SignalChem); purchased SignalChem
T1 sequence (Q06124 1-593): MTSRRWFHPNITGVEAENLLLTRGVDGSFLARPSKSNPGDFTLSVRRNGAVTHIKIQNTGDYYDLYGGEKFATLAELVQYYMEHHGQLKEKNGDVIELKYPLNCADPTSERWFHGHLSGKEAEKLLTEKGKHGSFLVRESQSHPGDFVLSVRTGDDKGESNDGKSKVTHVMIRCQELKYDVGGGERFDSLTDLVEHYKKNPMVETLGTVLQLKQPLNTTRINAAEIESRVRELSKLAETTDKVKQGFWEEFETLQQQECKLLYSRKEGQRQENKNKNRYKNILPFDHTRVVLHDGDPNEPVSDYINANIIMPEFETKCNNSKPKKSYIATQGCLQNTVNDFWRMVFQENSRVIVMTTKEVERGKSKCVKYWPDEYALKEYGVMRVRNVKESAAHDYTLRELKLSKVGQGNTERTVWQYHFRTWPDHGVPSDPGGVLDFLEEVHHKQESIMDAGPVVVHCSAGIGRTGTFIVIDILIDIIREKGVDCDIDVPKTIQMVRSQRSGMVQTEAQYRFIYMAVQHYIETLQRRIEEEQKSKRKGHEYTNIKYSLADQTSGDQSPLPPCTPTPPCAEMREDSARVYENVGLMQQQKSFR
Procedure: Test Example 1: Experiment on the Inhibition of In Vitro Enzyme Activity of SHP2 (Protein Phosphatase)
phosphatase: recombinant full-length human PTPN11 (SHP2), active (SignalChem);
substrate: 6,8-difluoro-4-methylumbelliferyl phosphate (DiFMUP) (Invitrogen);
activating peptide: IRS1_pY1172(dPEG8)pY1222 (IRS1) (BPS Bioscience);
terminator: bpv(phen) (bpv) (Abcam).
SHP2 concentration: 0.5 nM;
DiFMUP concentration: 200 μM;
IRS-1 concentration: 0.5 μM;
bpv concentration: 160 μM;
buffer systems: 60 mM Hepes pH 7.2; 75 mM NaCl; 75 mM KCl; 0.05% surfactant P20; 1 mM EDTA; 5 mM DTT;
incubation duration of compound and enzyme: 60 minutes;
reaction time of enzyme and substrate: 30 minutes;
parameters for microplate reader: BMG PHERAstar fluorescence microplate reader at an excitation wavelength of 340 nm and an emission wavelength of 450 nm.
Test group: A mixture of the test compound and the phosphatase SHP2 together with the activating peptide IRS-1 were incubated in the buffer system at room temperature for 60 minutes. The substrate DiFMUP was added to initiate the reaction and incubated at room temperature for 30 minutes. Thereafter, bpv was added to terminate the reaction. The reaction plate was placed in the microplate reader, and the fluorescence intensities of the wells in the plate were measured using an endpoint assay.
Negative group: The experimental method for the negative group was the same as that for the test group, except that the test compound was substituted with 0.05% aqueous solution of DMSO.
Blank group: The experimental method for the blank group was the same as that for the test group, except that the test compound was substituted with 0.05% aqueous solution of DMSO and that SHP2 was not added.
The relative inhibitory activity was calculated for the test group at each concentration based on the following equation: inhibition rate (%)=100%−(the fluorescence intensity of the test group−the fluorescence intensity of the blank group)/(the fluorescence intensity of the negative group−the fluorescence intensity of the blank group)×100%. The half maximal inhibitory concentration (IC50) of the compound was calculated by fitting the curve according to the four-parameter logistic model.

[3] = tested on: NCI-H358 cell (human non-small cell lung cancer cell); assay: Inhibition of the proliferation activity of NCI-H358 cell (CellTiter-Glo); type: cell-based; conditions: 120 h, 5 days
Procedure: Test Example 4: Experiment on the Inhibition of the Proliferation Activity of NCI-H358 Cell (Human Non-Small Cell Lung Cancer Cell)
cell: NCI-H358 (Nanjing CoBioer);
as §1, §2
incubation conditions for compounds: 37° C., 5% CO2;
as §3, §4, §5, §6, §7

Row | Structure (SMILES) | IC50 [1] [nM] | IC50 [2] [nM] | IC50 [3] [nM]
1 | CC(N)C1(C)CCN(c2ncc(Sc3ccnc(N4CCCC4CO)c3Cl)nc2CO)CC1 (stereo not drawn) [Example 3] | 1140 | 3.48 | –
2 | C[C@@H]1OCC2(CCN(c3ncc(Sc4ccnc(N5CCC(CO)C5)c4Cl)nc3CO)CC2)[C@@H]1N (stereo partly drawn) [Example 8, (3-((3S,4S)-4-amino-3-methyl-2-oxa-8-azaspiro[4.5]decan-8-yl)-6-(3-chloro-2-(3-(hydroxymethyl)pyrrolidin-1-yl)pyridin-4-ylthio)pyrazin-2-yl)methanol] | 30 | 0.88 | –
3 | C[C@@H]1OCC2(CCN(c3ncc(Sc4ccnc(N5CCC(CC#N)C5)c4Cl)nc3CO)CC2)[C@@H]1N (stereo partly drawn) [Example 10, 2-(1-(4-(5-((3S,4S)-4-amino-3-methyl-2-oxa-8-azaspiro[4.5]decan-8-yl)-6-(hydroxymethyl)pyrazin-2-ylthio)-3-chloropyridin-2-yl)pyrrolidin-3-yl)acetonitrile] | 40 | 1.22 | –
4 | C[C@@H]1OCC2(CCN(c3ncc(Sc4ccnc(N5CC(CF)C5)c4Cl)nc3CO)CC2)[C@@H]1N [Example 16, (3-((3S,4S)-4-amino-3-methyl-2-oxa-8-azaspiro[4.5]decan-8-yl)-6-(3-chloro-2-(3-(fluoromethyl)azetidin-1-yl)pyridin-4-ylthio)pyrazin-2-yl)methanol] | 40 | 1 | –
5 | COCC1(C)CN(c2nccc(Sc3cnc(N4CCC5(CC4)CO[C@@H](C)[C@H]5N)c(CO)n3)c2Cl)C1 [Example 33, (3-((3S,4S)-4-amino-3-methyl-2-oxa-8-azaspiro[4.5]decan-8-yl)-6-(3-chloro-2-(3-(methoxymethyl)-3-methylazetidin-1-yl)pyridin-4-ylthio)pyrazin-2-yl)methanol] | 90 | 4.1 | –
6 | CC(C)(O)C1CN(c2nccc(Sc3cnc(N4CCC5(CC4)Cc4ncccc4[C@H]5N)cn3)c2Cl)C1 [Example 45, (S)-2-(1-(4-(5-(5-amino-5,7-dihydrospiro[cyclopenta[b]pyridine-6,4′-piperidin]-1′-yl)pyrazin-2-ylthio)-3-chloropyridin-2-yl)azetidin-3-yl)propan-2-ol] | 210 | 4.1 | –
7 | CC(C)(O)C1CN(c2nccc(Sc3cnc(N4CCC5(CC4)CCC4(CC4)[C@H]5N)c(CO)n3)c2Cl)C1 [Example 49, 2-(1-(4-(5-(4-amino-8-azadispiro[2.1.5.2]dodecan-8-yl)-6-(hydroxymethyl)pyrazin-2-ylthio)-3-chloropyridin-2-yl)azetidin-3-yl)propan-2-ol] | 270 | 2.3 | –

The next lines start with the values.

Row | IC50 [1] [nM] | IC50 [2] [nM] | IC50 [3] [nM] | Structure (SMILES)
8 | – | 9.3 | – | C[C@@H]1OCC2(CCN(c3ncc(Sc4ccc(N5CC(C(C)(C)O)C5)nc4Cl)nc3CO)CC2)[C@@H]1N [Example 11, 2-(1-(5-(5-((3S,4S)-4-amino-3-methyl-2-oxa-8-azaspiro[4.5]decan-8-yl)-6-(hydroxymethyl)pyrazin-2-ylthio)-6-chloropyridin-2-yl)azetidin-3-yl)propan-2-ol]
9 | – | 6.9 | – | CC(C)(O)C1CN(c2nccc(Sc3cnc(N4CCC5(CC4)Oc4ccc(F)cc4[C@H]5N)c(CO)n3)c2Cl)C1 [Example 20, (R)-2-(1-(4-(5-(3-amino-5-fluoro-3H-spiro[benzofuran-2,4′-piperidin]-1′-yl)-6-(hydroxymethyl)pyrazin-2-ylthio)-3-chloropyridin-2-yl)azetidin-3-yl)propan-2-ol]
10 | – | 3.7 | – | Cc1nc(N2CCC3(CC2)CO[C@@H](C)[C@H]3N)c(CO)nc1Sc1ccnc(N2CC(C(C)(C)O)C2)c1Cl [Example 32, 2-(1-(4-(5-((3S,4S)-4-amino-3-methyl-2-oxa-8-azaspiro[4.5]decan-8-yl)-6-(hydroxymethyl)-3-methylpyrazin-2-ylthio)-3-chloropyridin-2-yl)azetidin-3-yl)propan-2-ol]
11 | – | 2.4 | – | C[C@@H]1OCC2(CCN(c3cnc(Sc4ccnc(N5CCCC5CO)c4Cl)c(N)n3)CC2)[C@@H]1N (stereo partly drawn) [Example 37, (1-(4-(3-amino-5-((3S,4S)-4-amino-3-methyl-2-oxa-8-azaspiro[4.5]decan-8-yl)pyrazin-2-ylthio)-3-chloropyridin-2-yl)pyrrolidin-2-yl)methanol]
12 | – | 5.3 | – | C[C@@H]1OCC2(CCN(c3cnc(Sc4ccnc(N5CC(CS(C)(=O)=O)C5)c4Cl)c(N)n3)CC2)[C@@H]1N [Example 38, (3S,4S)-8-(6-amino-5-(3-chloro-2-(3-(methylsulfonylmethyl)azetidin-1-yl)pyridin-4-ylthio)pyrazin-2-yl)-3-methyl-2-oxa-8-azaspiro[4.5]decan-4-amine]
13 | – | 8.4 | – | CC(C)(O)C1CN(c2nccc(Sc3cnc(N4CCC5(CC4)Oc4ccc(F)cc4[C@H]5N)cn3)c2Cl)C1 [Example 41, (R)-2-(1-(4-(5-(3-amino-5-fluoro-3H-spiro[benzofuran-2,4′-piperidin]-1′-yl)pyrazin-2-ylthio)-3-chloropyridin-2-yl)azetidin-3-yl)propan-2-ol]
14 | 50 | 2.49 | 50 | CC(C)(O)C1CN(c2nccc(Sc3cnc(N4CCC5(CC4)Oc4ncccc4[C@H]5N)c(CO)n3)c2Cl)C1 [Example 44, (R)-2-(1-(4-(5-(3-amino-3H-spiro[furo[2,3-b]pyridine-2,4′-piperidin]-1′-yl)-6-(hydroxymethyl)pyrazin-2-ylthio)-3-chloropyridin-2-yl)azetidin-3-yl)propan-2-ol]
15 | – | 4.84 | – | Cc1nc(N2CCC3(CC2)Cc2ncccc2[C@H]3N)c(CO)nc1Sc1ccnc(N2CC(C(C)(C)O)C2)c1Cl [Example 50, (S)-2-(1-(4-(5-(5-amino-5,7-dihydrospiro[cyclopenta[b]pyridine-6,4′-piperidin]-1′-yl)-6-(hydroxymethyl)-3-methylpyrazin-2-ylthio)-3-chloropyridin-2-yl)azetidin-3-yl)propan-2-ol]
